Results: publication PMC4155172, “Killing of melanoma cells and their metastases by human lactoferricin derivatives requires interaction with the cancer marker phosphatidylserine” (Biometals, 2014)
Where a SMILES comes first, the peptide text is derived from it. The star is where a group is joined. Octanoyl(6-Me) = CCC(C)CCCCC(=O)*

What was measured:
[1] = tested on: melanoma cell line SBcl-2; assay: Propidium iodide-uptake toxicity assay, melanoma SBcl-2; assay type: cell-based, human; parameters: Toxicity—PI uptake, cancer cells / Cancer specificity: key: +, peptide effect; ++, increasing peptide effect; +++: etc; ++++: etc; −, no peptide effect; conditions: for Toxicity—PI uptake, cancer cells: first symbol of cancer cells/healthy cells; as to Toxicity—PI uptake, cancer cells: key: +, peptide effect; ++, increasing peptide effect; +++: etc; ++++: etc; −, no peptide effect
From the text: (§1) Epidermis was separated. […] All cell cultures were periodically checked for mycoplasma.

[2] = ANTS/DPX leakage from POPC LUVs; conditions: for ANTS/DPX release from POPC liposomes: 2–8 µM peptide; for Permeability—ANTS/DPX leakage, healthy mimic: second symbol of cancer mimic/healthy mimic; as to Permeability—ANTS/DPX leakage, healthy mimic: key: +, peptide effect; ++, increasing peptide effect; +++: etc; ++++: etc; −, no peptide effect
Description: [The procedure below names another target; the source lists this target under the same test.] (§2) Appropriate amounts of respective phospholipid stock solution were dried under a stream of nitrogen and stored in vacuum overnight to completely remove organic solvents. The dry lipid film was then dispersed in phosphate buffered saline (PBS, 20 mM NaPi, 130 mM NaCl, pH 7.4) and hydrated at a temperature well above the gel to fluid phase transition of the respective phospholipid under intermittent vigorous vortex-mixing. The lipid concentration was 0.1 weight % for calorimetric and 2 % for leakage experiments. Hydration was carried out in presence or absence of peptides at a lipid-to-peptide ratio of 25:1 and 12.5:1 using a protocol described for POPS (Jiménez-Monreal et al. [1998]), DPPS (Jing et al. [2005]) and DPPC (Sevcsik et al. [2007]). Briefly hydration of POPS films occurred at 30 °C, DPPS at 65 °C and DPPC at 50 °C, for 2 h with vortexing for 1 min every 15 min. The hydration of the lipid mixtures DPPS/DPPC 1:5 and DPPS/DPPC 1:1 were performed at 65 °C for 2 h by vortexing accompanied by one freeze–thaw cycle every 15 min. The fully hydrated samples were stored for at least 1 h at room temperature until measurement.
(§3) Leakage of aqueous contents from liposomes was determined using the 8-aminonaphthalene-1,3,6-trisulfonic acid/p-xylene-bis-pyridinium bromide (ANTS/DPX) assay (Ellens et al. [1985]). Lipid films (preparation see above) were hydrated with 12.5 mM ANTS, 45 mM DPX, 68 mM NaCl, 10 mM HEPES (4-(2-hydroxyethyl)-1-piperazineethanesulfonic acid) at pH 7.4 following a standard procedure. Subsequently, the dispersions were extruded 20 times through a polycarbonate filter (Millipore-Isopore™) of 0.1 µm pore size to obtain LUVs. Unilamellarity and size were tested by X-ray and dynamic light scattering, respectively. The ANTS/DPX encapsulating vesicles were separated from free ANTS/DPX by exclusion chromatography using a column filled with Sephadex™ G-75 (Amesham Biosciences) fine gel swollen in an isosmotic buffer (10 mM HEPES, 140 mM NaCl, pH 7.4). The void volume fractions were collected and the phospholipid concentration was determined by phosphate analysis (Bartlett [1959]; Broekhuyse [2005]). The fluorescence measurements were performed in 2 mL of the isosmotic buffer in a quartz cuvette at 37 °C. Aliquots of LUVs were diluted with the isosmotic buffer to a final lipid concentration of 50 µM. Fluorescence spectra were obtained at 37 °C using an excitation wavelength of 360 nm, an emission wavelength of 530 nm and a slit width of 5 nm for both excitation and emission monochromators. Fluorescence emission was recorded as a function of time before and after the addition of incremental amounts of peptide. The fluorescence increase due to leakage and subsequent dilution of quenched dye was measured after addition of peptides. Peptides were added to final concentrations of 2, 4 and 8 µM, corresponding to peptide-to-lipid molar ratios of 1:25, 1:12.5 and 1:6.25, respectively. Data are presented in terms of fluorescence intensity (IF and were calculated using Eq. 3:3 IF=F-F0/Fmax-F0 F is the measured fluorescence, F0 the initial fluorescence without peptide and Fmax the fluorescence corresponding to 100 % leakage gained by addition of 1 % Triton X-100.

[3] = Differential scanning calorimetry of DPPC/DPPS 1:1 liposomes; conditions: lipid to peptide 25:1
Description: as §2
(§4) DSC experiments were performed with a differential scanning calorimeter (VP-DSC) from MicroCal, Inc. (Northhampton, MA, USA). Heating scans were performed at a scan rate of 30 °C/h (pre-scan thermostating 30 min) with a final temperature of approximately 10 °C above the main transition temperature (Tm) and cooling scans at the same scan rate (pre-scan thermostating 1 min) with a final temperature approximately 20 °C below Tm. The heating/cooling cycle was performed three times. Enthalpies were calculated by integration of the peak areas after normalization to phospholipid concentration and baseline adjustment using the MicroCal Origin software (VP-DSC version). The phase transition temperature was defined as the temperature at the peak maximum (McElhaney [1982]).

[4] = Differential scanning calorimetry of DPPC liposomes; conditions: for Bilayer perturbation—DSC, healthy mimic: second symbol of cancer mimic/healthy mimic; as to Bilayer perturbation—DSC, healthy mimic: key: +, peptide effect; ++, increasing peptide effect; +++: etc; ++++: etc; −, no peptide effect
Description: as §2, §4

[5] = tested on: melanoma metastases WM164; assay: Propidium iodide-uptake toxicity assay, melanoma metastases WM164; assay type: cell-based, human; conditions: 20 µM peptide, 8 h
From the text: as §1

[6] = Tryptophan fluorescence and acrylamide quenching with DPPC membranes; conditions: second symbol of cancer mimic/healthy mimic; also: key: +, peptide effect; ++, increasing peptide effect; +++: etc; ++++: etc; −, no peptide effect
Description: as §2
(§5) Fluorescence spectroscopy experiments were performed using a SPEX Fluoro Max-3 spectrofluorimeter (Jobin–Yvon, Longjumeaum, France) and spectra were analyzed with Datamax software.
(§6) Tryptophan fluorescence spectra were obtained at room temperature using an excitation wavelength of 282 nm and a slit width of 5 nm for excitation and emission monochromators. Quenching of Tryptophan was carried out in the presence and absence of phospholipid liposomes (lipid-to-peptide ratio 25:1) using 0.1, 0.4 and 0.7 M acrylamide. The data were analyzed according to the Stern–Volmer equation (Eq. 2):2 F0F0FF=1+KSVQ where F0 and F represent the fluorescence emission intensities in the absence and presence of the quencher molecule (Q) and KSV is the Stern–Volmer quenching constant, which is a quantitative measure for the accessibility of tryptophan to acrylamide (Tao and Cho [1979]).

[7] = Differential scanning calorimetry of DPPS liposomes; conditions: for Bilayer perturbation—DSC, cancer mimic: first symbol of cancer mimic/healthy mimic
Description: as §2, §4

[8] = Differential scanning calorimetry of DPPC/DPPS 5:1 liposomes; conditions: lipid to peptide 25:1, split transition given as peak/peak
Description: as §2, §4

[9] = Tryptophan fluorescence and acrylamide quenching with DPPS membranes; parameters: key: +, peptide effect; ++, increasing peptide effect; +++: etc; ++++: etc; −, no peptide effect; conditions: first symbol of cancer mimic/healthy mimic (PS)
Description: as §2, §5, §6

[10] = tested on: differentiated non-tumorigenic melanocytes; conditions: for melanocytes killed (PI-uptake): 20 µM peptide, 8 h, media containing serum
Description: Human melanocytes used as healthy control cells were isolated from foreskin. Foreskin was cut into small pieces and incubated with 0.3 % trypsin (PAA) overnight at 4 °C and for 1 h at 37 °C. Epidermis was separated. Cells were mechanically removed from the cell layer and centrifuged at 300 g for 3 min. The pellet was re-suspended and cells further cultured in melanocyte growth medium (Biomedica, Vienna, Austria, PromoCell GmbH, Heidelberg, Germany). All cells were kept in a 5 % CO2 atmosphere at 37 °C. At 90 % confluence cell-culture flasks were passaged after detachment with accutase (PAA, Pasching Austria). All cell cultures were periodically checked for mycoplasma.
Cells were collected, re-suspended in media and diluted to a concentration of 10^6 cells/ml. Aliquots of 10^5 cells/100 µl media were incubated with different amount of peptides (0–80 µM) for 8 h at 37 °C and 5 % CO2. Propidium iodide (PI) (2 µl/10^5cells of 50 µg/ml, Invitrogen, Camarillo, CA, USA) was added and cells were again incubated for 5 min at room temperature in the dark. Excitation and emission wavelengths were 536 and 617 nm, respectively. Cytotoxicity was calculated from the percentage of PI positive cells in media alone (P0) and in the presence of peptide (PX). […] Triton-X-100 was used to determine 100 % of PI positive cells (P100).1 %PI-uptake=100∗(PX-P0)/(P100-P0)

[11] = ANTS/DPX leakage from POPS LUVs; conditions: for ANTS/DPX release from POPS vesicles: 50 µM lipid LUVs; for specificity/selectivity for cancer over non-cancer mimic, ANTS/DPX leakage: POPS versus POPC LUVs; for Permeability—ANTS/DPX leakage, cancer mimic: first symbol of cancer mimic/healthy mimic
Description: as §2, §3

RBCs = conditions: 2.5 % RBCs, 500 µg peptide/ml; ref Zweytick et al. [2011b]; cited from earlier work
From the text: The correlation of activity against bacteria with activity on bacterial model systems for lactoferricin derived peptides and their N-acylated derivatives was shown recently (Zweytick et al. [2011b]).

E. coli = conditions: ref Zweytick et al. [2011b]; cited from earlier work
From the text: It has been reported by Yang et al. (Yang et al. [2004]) that a prerequisite for antitumor but not for antibacterial peptides derived of bovine lactoferrin is a minimum net charge close to +7 and to consist of at least 14 amino acids.

[12] = 50 µM lipid LUVs, pH 7.4, 37 °C
[13] = DPPC liposomes in PBS pH 7.4, lipid to peptide 25:1, scan rate 30 °C/h
[14] = DPPC liposomes, lipid to peptide 25:1
[15] = DPPC liposomes, lipid to peptide 25:1, transition half-width
[16] = 25:1 lipid-to-peptide molar ratio
[17] = DPPS liposomes, lipid to peptide 25:1, split transition given as peak/peak
[18] = 8 µM peptide (peptide-to-lipid 1:6.25), 10 mM HEPES 140 mM NaCl pH 7.4, 37 °C, fluorescence
[19] = DPPC liposomes, lipid to peptide 12.5:1

| Molecule | specificity for cancer cells, PI-uptake ratio melanoma SBcl-2 versus melanocytes ([1]; 20 µM peptide, 8 h) | Toxicity—PI uptake, cancer cells [1] | ANTS/DPX release from POPC liposomes [2, 12] [%] | Permeability—ANTS/DPX leakage, healthy mimic [2] | T1/2 [3] [°C] | Tm [3] [°C] | ΔH m [3] [kcal/mol] | ΔH pre [4, 13] [kcal/mol] | Tm [4, 14] [°C] | Tpre [4, 14] [°C] | ΔH m [4, 14] [kcal/mol] | T1/2 [4, 15] [°C] | Bilayer perturbation—DSC, healthy mimic [4] | specificity, PI-uptake ratio melanoma metastases WM164 versus melanocytes [5] | Bilayer affinity—quenching, healthy mimic [6] | reduction of the main transition enthalpy of DPPS [7, 16] [%] | Bilayer perturbation—DSC, cancer mimic [7] | Bilayer affinity—quenching, cancer mimic [9] | ANTS/DPX release from POPS vesicles [11, 18] | Permeability—ANTS/DPX leakage, cancer mimic [11] | further results |
| --- | --- | --- | --- | --- | --- | --- | --- | --- | --- | --- | --- | --- | --- | --- | --- | --- | --- | --- | --- | --- | --- |
| PFWRIRIRRPRRIRIRWFP-NH2 [R-DIM-P-LF11-322, retro repeat derivative: LF11-322-proline-LF11-322 retro] | higher than 1,000 fold | +++ | < 5 | − | 1.08 | 42.4 | 7.9 | 1.5 | 41.3 | 34.5 | 9.1 | 0.25 | − | > 500 fold | − | 70 | +++ | ++ | 90–100% | +++ | PI positive SBcl-2 cells ([1]; 20 µM peptide, 8 h, media containing serum): more than 80%; Cancer specificity ([1]; cancer cells/healthy cells): ++++; decrease of the transition temperature of DPPS [7, 16]: ~5 °C; T1/2 [7, 17]: 1.53 °C; Tm [7, 17]: 47.9 °C; ΔH m [7, 17]: 3.1 kcal/mol; T1/2 [8]: 0.83 °C; Tm [8]: 42.2 °C; ΔH m [8]: 8.2 kcal/mol; Toxicity—PI uptake, healthy cells [10]: −; melanocytes killed (PI-uptake) [10]: < 1%; specificity/selectivity for cancer over non-cancer mimic, ANTS/DPX leakage [11]: up to 20 fold |
| CCC(C)CCCCC(=O)N1CCC[C@H]1C(=O)N[C@@H](Cc1ccccc1)C(=O)N[C@@H](Cc1c[nH]c2ccccc12)C(=O)N[C@@H](CCCNC(=N)N)C(=O)N[C@H](C(=O)N[C@@H](CCCNC(=N)N)C(=O)N[C@H](C(=O)N[C@@H](CCCNC(=N)N)C(=O)N[C@@H](CCCNC(=N)N)C(N)=O)[C@@H](C)CC)[C@@H](C)CC (stereo partly drawn) [6-MO-LF11-322] ({Octanoyl(6-Me)}-PFWRIRIRR-NH2) | threefold to fourfold | ++ |  | + | 2.45 | 43.3 | 5.4 | 0.4 |  | 34.6 | 9.1 | 0.26 | + |  | + | 35 | ++ | ++ | ~70% | ++ | IC50 ([1]; PI-uptake, cancer cells, 8 h, media containing serum): ~20 µM; specificity for cancer cells after 1 h ([1]; after 1 h, data not shown): sevenfold; leakage of POPC vesicles ([2]; peptide-to-lipid molar ratio of 1:6.25 (8 µM), 50 µM lipid LUVs, pH 7.4, 37 °C): about 20%; lysis of RBCs (RBCs): 20%; T1/2 [7, 17]: 2.24 °C; Toxicity—PI uptake, healthy cells [10]: +; melanocytes killed (PI-uptake) [10]: ~ 15%; ANTS/DPX release from POPS vesicles ([11]; 4 µM peptide (peptide-to-lipid 1:12.5), pH 7.4, 37 °C): ~ 30%; specificity/selectivity for cancer over non-cancer mimic, ANTS/DPX leakage [11]: threefold |
| PFWRIRIRR-NH2 [LF11-322] |  |  | < 5 | − | 2.42 | 44.2 | 8.3 | 1.1 | 41.3 | 34.8 | 9.0 | 0.17 | − | twofold | − | 10 | + | ++ | ~ 20% | + | killing (PI-uptake) of SBcl-2 ([1]; 80 µM peptide, 8 h, media containing serum, 37 °C): < 10%; T1/2 [4, 19]: 0.26 °C; Tm [4, 19]: 41.3 °C; Tpre [4, 19]: 34.5 °C; ΔH m [4, 19]: 9.2 kcal/mol; ΔH pre [4, 19]: 1.0 kcal/mol; T1/2 ([7]; DPPS liposomes, lipid to peptide 12.5:1): 2.48 °C; T1/2 [8]: 0.80 °C; Tm [8]: 42.4 °C; ΔH m [8]: 10.1 kcal/mol; minimal inhibitory concentration for E. coli (E. coli): 8 to 16 µg/mL |
